Test results: patent US20050119243A1, “HIF-1 inhibitors and methods of use thereof” (priority 2003, published 2005)
Residues, ends and D or L forms follow the SMILES beside them. *: point of attachment. Cbz = O=C(OCc1ccccc1)*

Assays:
HIF-1α [1] = test: HIF-1α detection in HEK 293 and HT144 cells treated with DBM plus metals; type: cell-based, human; settings: cells exposed to DBM plus the metal
From the text: In subsequent studies, similar data has been found for HEK 293 human embryonic kidney cells and HT144 melanoma cells treated with either DBM or Zn^2+. […] This finding appears to be unique to the combination of DBM with Zn^2+ since it was not observed in cells exposed to DBM plus other metals such as Fe^3+, Co^2+, Cd^2+, and Ni^2+. Furthermore, this unexpected reversal of the independent effects of DBM and Zn^2+ was not blocked by hypoxia. These observations are counterintuitive since inhibitors of HIF P4H should impede degradation of HIF-1α. Also, these two HIF P4H inhibitors appear to work in concert under inhibitory conditions to down-regulate HIF-1α with little effect on HIF-1α mRNA levels.

HIF-1α and VEGF = settings: LNCaP cells, ambient O2; cited from earlier work
VEGF = settings: patients with metastatic kidney cancer, high doses; cited from earlier work
HIF-1α [2] = test: Western blot analysis of HIF-1α in HEK 293 cells with or without proteosome inhibitor MG-132, ambient oxygen; type: cell-based, human; settings: HEK 293, ambient oxygen; for HIF-1α detection by Western blot: 2 hours, agent without further addition; for HIF-1α detection by Western blot with MG-132 added: agent plus MG-132
Experimental: Proteosomal degradation of HIF-1α was assessed in HEK 293 embryonic kidney cells treated with DBM alone, Zn^2+ alone or the combination under ambient oxygen in the presence or absence of the proteosome inhibitor MG-132 (FIG. 18). […] (FIG. 18, lane 5). […] The HIF-1α isoforms are more clearly resolved on the gel from FIG. 18 than FIG. 15. This may be due to differences in the time the gels were run.

HIF-1α [3] = test: Western blot analysis of HIF-1α in VHL (−/−) RCC-4 renal cell carcinoma cells, normoxic; type: cell-based, human; settings: RCC-4 VHL (−/−), 1 hour
From the text: As expected, HIF-1α was detected by Western blot under normoxic conditions (FIG. 19, lane 1). […] These experiments have not been performed as yet in RCC4 cells with DBM alone or in RCC4 cells transfected with pVHL.

HIF-1α [4] = test: Western blot analysis of HIF-1α in HT144 melanoma cells under hypoxic conditions; type: cell-based, human; settings: HT 144 cells; for HIF-1α levels by Western blot: 2 hours under 1% O2
Experimental: (§1) HT 144 melanoma cells (FIG. 16(A)) and HEK 293 embryonic kidney cells (FIG. 16(B)) were incubated for 2 hours under 1% O2. HIF-1α […].

HIF-1α [5] = test: Western blot analysis of HIF-1α in HEK 293 cells under hypoxic conditions; type: cell-based, human; settings: for HIF-1α levels by Western blot: 2 hours under 1% O2
Experimental: as §1

HIF-1α [6] = test: Western blot analysis of HIF-1α in HEK 293 cells under ambient oxygen; type: cell-based, human; settings: HEK 293, ambient oxygen, 1 hr
Experimental: The first unexpected finding was that the combination of DBM plus Zn^2+ reversed the induced stabilization of HIF-1α observed when the cells were exposed to either DBM or Zn^2+ alone under normoxic conditions (FIG. 15). HEK 293 embryonic kidney cells were incubated at ambient levels of oxygen for 1 hr with the addition of DBM alone, Zn^2+ alone or the combination. HIF-1α was not detected at baseline by Western blot (FIG. 15, lane 1).
One possible explanation for the loss of HIF-1α stabilization in cells treated with DBM plus Zn^2+ is chelation. DBM is a bidentate metal chelator that could itself bind to Zn^2+ in a 2:1 stochiometric ratio, however, the observed loss of HIF-1α stabilization occurred when either DBM or Zn^2+ was present in 50 μM excess at ratios of 4:1 (FIG. 15, lane 3) and 1:1 (FIG. 15, lane 5), respectively. […] Presumably, the increases in HIF-1α in FIG. 15 resulted from HIF P4H inhibition leading to diminished prolyl-4-hydroxylation and disruption of proteosomal degradation.

HIF-1α mRNA = test: Semiquantitative PCR of HIF-1α mRNA levels in HEK 293 cells under normoxia; type: cell-based, human; settings: HEK 293, normoxia, 2 hours, serum free media
Experimental: The effects of DBM alone, Zn^2+ alone and DBM plus Zn^2+ on HIF-1αmRNA levels were assessed by semiquantitative PCR in extracts of HEK 293 kidney cells under normoxia for 2 hours in serum free media (FIG. 17). […] HIF-1αZ mRNA levels were not found to be increased (data not shown).

Chain of VEGF (P15692 207-311 limits assumed): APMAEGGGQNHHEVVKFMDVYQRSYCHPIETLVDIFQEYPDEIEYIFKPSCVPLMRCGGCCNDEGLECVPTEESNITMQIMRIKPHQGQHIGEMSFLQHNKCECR

For `[Ni+2]` [Ni^2+], the “Loss of HIF-1α detection on simultaneous treatment with DBM plus metal” value (shortened to “Loss of HIF-1α detection”) (HIF-1α [1]) was “not observed”.

For `[Co+2]` [Co^2+, reference compound], the “HIF-1α and VEGF levels” value (HIF-1α and VEGF) is given as “rapidly increase” and the “Loss of HIF-1α detection” value (HIF-1α [1]) is given as “not observed”.

For “bevacizumab: humanized monoclonal antibody specific for VEGF”, the Clinical response (VEGF) is given as “Clinical responses have been observed”.

In the case of `CC(C)C[C@@H](C=O)NC(=O)[C@H](CC(C)C)NC(=O)[C@H](CC(C)C)NC(=O)OCc1ccccc1` [MG-132, reference compound] (Cbz-Leu-Leu-Leu-aldehyde), the “HIF-1α detection by Western blot” value (HIF-1α [2]) is reported as “accumulation of a broad range of proteins that possibly represent ubiquitinated forms of HIF-1α” and the “HIF-1α detection by Western blot” value (HIF-1α [3]) is reported as “Stabilization of HIF-1α was enhanced”.

With `[Cd+2]` [Cd^2+] the “Loss of HIF-1α detection” value (HIF-1α [1]) was “not observed”.

In the case of `[Fe+3]` [Fe^3+, reference compound], the “HIF-1α levels by Western blot, metal added to DBM” value (HIF-1α [4]; 2 hours under 1% O2, with DBM) is reported as “did not significantly alter the effect of DBM on HIF-1α levels”, the “Loss of HIF-1α detection” value (HIF-1α [1]) is reported as “not observed” and the “HIF-1α levels by Western blot, metal added to DBM” value (HIF-1α [5]; 2 hours under 1% O2, with DBM) is reported as “decreased slower migrating isoforms of HIF-1α”.

In the case of `[Zn+2]` [Zn^2+], the “HIF-1α levels by Western blot” value (HIF-1α [4]) is reported as “decreased the more rapidly migrating isoforms of HIF-1α”, the “HIF-1α levels by Western blot” value (HIF-1α [6]; Zn^2+ alone 25 μM to 100 μM) is reported as “increased HIF-1α levels in a dose dependent manner” and the “HIF-1α mRNA levels (PCR product)” value (HIF-1α mRNA) is reported as “not significantly different from baseline”. The “HIF-1α levels by Western blot” value (HIF-1α [5]) was “little effect”, the “HIF-1α detection by Western blot” value (HIF-1α [2]) was “readily detected” and the “HIF-1α detection by Western blot with MG-132 added” value (HIF-1α [2]) was “did not stabilize these other forms of HIF-1α”.

With `O=C(CC(=O)c1ccccc1)c1ccccc1` [DBM, 1,3-diphenylpropane-1,3-dione] the “HIF-1α levels by Western blot” value (HIF-1α [4]) was “significantly increased the levels of HIF-1α”, the “HIF-1α levels by Western blot” value (HIF-1α [6]; DBM alone at 100 μM) was “significant increase in HIF-1α levels” and the “HIF-1α mRNA levels (PCR product)” value (HIF-1α mRNA) was “not significantly different from baseline”. For the same compound, the “HIF-1α and VEGF levels” value (HIF-1α and VEGF) was “rapidly increase”, the “HIF-1α levels by Western blot” value (HIF-1α [5]) was “significantly increased the levels of HIF-1α” and the “HIF-1α detection by Western blot” value (HIF-1α [2]) was “readily detected”. The “HIF-1α detection by Western blot with MG-132 added” value (HIF-1α [2]) was “did not stabilize these other forms of HIF-1α”.
